Data: patent US11965100B2, “Aggregation-induced emission luminogens useful for cancer cell discrimination and monitoring” (The Hong Kong University of Science and Technology, priority 2020, dated 2024)

Experiments:
[1] = Quantum yield in the solid state; format: physicochemical
Source text: IVPI-2 is able to stain mitochondria in healthy live cancer cells. However, when Δψm decreases, IVPI-2 migrates into nucleolus. Since IVPI-2 is target-changeable according to the change of mitochondrial physiology, the chemical structure of IVPI-2 was modified in order to enhance the mitochondria to nucleolus migration. Iodide ion is a well-known effective fluorescent quencher due to its heavy-atom effect. The quantum yield of IVP-02 in the solid state is 4.3%, which is about 3 times than that of IVPI-02 (1.3%). An Exemplary synthetic route to certain embodiments of the compounds described herein is depicted in Scheme 1.

[2] = Absorption and one-photon excited fluorescence spectra, AIE activity; format: physicochemical
Source text: Similar results were reported by others. […] With the increase of glycerol volume content accompanied by viscosity increasing, the FL intensity increased gradually. […] These phenomena occur because high viscosity and low temperature could hamper intramolecular motion, leading to the closure of the nonradiative decay channel and thus enhanced FL emission. Furthermore, we added some RNA in PBS solution of IVP-02. […] Based on the calculation results in FIG. 20, IVP-02 located in the minor grooves of RNA, where the intramolecular motion of IVP-02 was also hampered.

[3] = tested on: cancer cells (A549 and HeLa) co-cultured with normal cells (COS7 and HLF); assay: CLSM imaging of cancer cells co-cultured with normal cells; format: cell-based; conditions: 30 min
Procedure: (§1) FIG. 5 CLSM images of live cancer cells (A549 and HeLa) co-cultured with normal cells (COS7 and HLF) (A), and the images of A549 and HLF cells seeded on different cover glasses (Scale bar=20 μm) (B) stained with 2 μM IVP-02 for 30 min (Scale bar=50 μm), respectively. λex=488 nm, λem=500-650 nm.
(§2) FIG. 10 CLSM images of live cancer cells (A549) co-cultured with normal cells (COS7) (A), and the images of A549 and HLF cells seeded on different cover glasses Scale bar=20 μm (B) stained with 2 μM IVP-02, 04, 06, 22, 42, and 62 for 30 min Scale bar=50 μm, respectively. (The first column in B is the same as FIG. 3B) λex=488 nm, λem=500-650 nm.
FIG. 11 CLSM images of live cancer cells (HeLa) co-cultured with normal cells (COS7), stained with 2 μM IVP-02, 04, 06, 22, 42, and 62 for 30 min, respectively. λex=488 nm, λem=500-650 nm. Scale bar=20 μm.
FIG. 12 CLSM images of live cancer cells (A549) co-cultured with normal cells (HLF), stained with 2 μM IVP-02, 04, 06, 22, 42, and 62 for 30 min, respectively. λex=488 nm, λem=500-650 nm. Scale bar=20 μm.
(§3) The bioimaging properties of IVP-02 in live cells were investigated by confocal laser scanning microscopy (CLSM). Cancer cells (A549 and HeLa) and normal cells (COS7 and HLF) were stained with IVP-02, respectively. […] So IVP-02 holds the high potential to differentiate cancer and normal cells. To verify this speculation, cancer and normal cells were co-cultured and stained with IVP-02. […] To precisely confirm the selectivity of IVP-02 to cancer cells, cancer cells A549 and normal cells HLF (A549 and HLF are both human lung cells) were seeded on different cover glasses, respectively. Then the two cover glasses were put in the same dish and stained with IVP-02 at the same time.
(§4) Cancer cells A549 co-cultured with normal cells COS7 were stained with these molecules, respectively. […] Then HeLa cells co-cultured with COS7 cells (FIG. 11), and A549 cells co-cultured with HLF cells (FIG. 12) were also stained with these molecules, the results were similar with that in A549 cells co-cultured with COS7 cells. In addition to co-culturing, A549 cells and HLF cells were also seeded on different cover glasses and stained with these molecules. […] Based on the imaging results above, it can be concluded that the selectivity of these IVP molecules to cancer cells is also based on the length of alkyl chain at pyridinium salt side. Lengthening the alkyl chain at the pyridinium salt side will eliminate the selectivity to cancer cells.

A549 and HLF cells = assay: CLSM imaging of A549 and HLF cells seeded on different cover glasses in the same dish; format: cell-based, human; conditions: 2 μM, 30 min
Procedure: as §1, §2, §3, §4

A549 cells = assay: Mitochondrion-nucleolus migration on CCCP treatment, A549 cells; format: cell-based, human
Procedure: FIG. 15 Live A549 cells (A) and live A549 co-cultured with COS 7 cells, live HeLa co-cultured with COS7 cells (B) were pre-stained with 2 μM IVP-02 for 30 min, and treated with 20 μM CCCP for 5 min. Then CCCP was removed away and fresh culture medium was added for another 5 min. λex=488 nm, λem=500-650 nm. Scale bar=20 μm.
FIG. 18 Live A549 cells were pre-stained with 2 μM IVP-04, 22, 42, 06, 62 for 30 min, and treated with 20 μM CCCP for 5 min. Then CCCP was removed away and fresh culture medium was added for another 5 min, respectively. λex=488 nm, λem=500-650 nm. Scale bar=20 μm.
(§5) Monitoring cell viability is a highly valuable task for the fundamental researches in biology, pathology, and medicine. Then we investigated whether IVP-02 could monitor cell viability. Δψm is a very important indicator to characterize cell viability. With the loss of cell viability, Δψm would decrease, while with the recovery of cell viability, Δψm would also recover to the normal level. […] Carbonyl cyanide m-chlorophenyl hydrazone (CCCP) is a type of protonophore and can cause rapid acidification of mitochondria by collapsing Δψm. Cancer cells A549 were pre-stained with IVP-02 for 30 min. In FIG. 15A, in the beginning, IVP-02 stained mitochondria clearly. […] Hydrogen peroxide (H2O2) can inhibit the oxidation respiratory chain that would cause the loss of cell viability. Then live A549 and HeLa cells were pre-stained with IVP-02, and treated with 10 mM H2O2.
(§6) In addition to IVP-02, we further investigated whether other IVP molecules could monitor the viability of cancer cells through mitochondrion-nucleolus migration was investigated. A549 cells were pre-stained with IVP-04, 22, 42, 06, and 62, respectively, and then CCCP was added.

HeLa cells = assay: Mitochondrion-nucleolus migration on CCCP treatment, HeLa cells; format: cell-based; conditions: pre-stained 2 μM 30 min, 20 μM CCCP 5 min
Procedure: FIG. 16 Live HeLa cells were pre-stained with 2 μM IVP-02 for 30 min, and treated with 20 μM CCCP for 5 min. Then CCCP was removed away and fresh culture medium was added for another 5 min. λex=488 nm, λem=500-650 nm. Scale bar=20 μm.
FIG. 19 Live HeLa cells were pre-stained with 2 μM IVP-04, 22, 42, 06, 62 for 30 min, and treated with 20 μM CCCP for 5 min. Then CCCP was removed away and fresh culture medium was added for another 5 min, respectively. λex=488 nm, λem=500-650 nm. Scale bar=20 μm.
as §5, §6

- quantum yield [1]: 4.3%
- quantum yield relative to IVPI-02 [1]: about 3 times
- AIE activity ([2]; viscosity, temperature, RNA, solid state): possesses AIE activity
- fluorescence in the solid state ([2]; λex 440 nm): around 575 nm
SMILES: CC[n+]1ccc(/C=C/c2c[nH]c3ccccc23)cc1 [IVP-02]
- staining of co-cultured cancer and normal cells ([3]; A549 and HeLa co-cultured with COS7 and HLF, 2 μM): only cancer cells (A549 and HeLa) were highly illuminated
- staining of co-cultured cancer and normal cells ([3]; A549 co-cultured with COS7, 2 μM): only stain A549 cells
- staining of A549 and HLF cells on different cover glasses (A549 and HLF cells): only A549 cells on the upper cover glass were illuminated
- migration back to mitochondria after removal of CCCP (A549 cells; A549, CCCP removed, fresh medium 5 min): migrated back to mitochondria
- migration from mitochondria to nucleolus after addition of CCCP (A549 cells; A549, pre-stained 2 μM 30 min, 20 μM CCCP 5 min): released from mitochondria and migrated to nucleolus
- nucleolus staining after addition of CCCP (HeLa cells): could stain nucleolus
